In the NIST ThermoML archive (doi:10.1021/je060271a):

Settings: 283.15 K, Liquid, Vibrating tube method

CCCC(=O)OCC(COC(=O)CCC)(COC(=O)CCC)COC(=O)CCC [pentaerythritol tetrabutyrate]
Settings	mass density [kg/m3]
26946 kPa	1074.1
26974 kPa	1074.2
26998 kPa	1074.3
27022 kPa	1074.2
27050 kPa	1074.3
27074 kPa	1074.2
27098 kPa	1074.2
27122 kPa	1074.3
27151 kPa	1074.2
27174 kPa	1074.3
27198 kPa	1074.2
27228 kPa	1074.3
27248 kPa	1074.3
27267 kPa	1074.4
27296 kPa	1074.4
27330 kPa	1074.3
27354 kPa	1074.3
27384 kPa	1074.5
27408 kPa	1074.4
27433 kPa	1074.5
27463 kPa	1074.4
27488 kPa	1074.4
27512 kPa	1074.4
27542 kPa	1074.4
27566 kPa	1074.6
27592 kPa	1074.5
27622 kPa	1074.5
27646 kPa	1074.5
27672 kPa	1074.6
27701 kPa	1074.7
27726 kPa	1074.6
27752 kPa	1074.6
27782 kPa	1074.5
27808 kPa	1074.6
27833 kPa	1074.6
27863 kPa	1074.6
27889 kPa	1074.6
27915 kPa	1074.7
27941 kPa	1074.7
27972 kPa	1074.8
27998 kPa	1074.6
28024 kPa	1074.7
28049 kPa	1074.8
28080 kPa	1074.8
28101 kPa	1074.7
28127 kPa	1074.7
28164 kPa	1074.8
28190 kPa	1074.8
28217 kPa	1074.7
28249 kPa	1074.7
28276 kPa	1074.8
28303 kPa	1074.9
28329 kPa	1074.9
28356 kPa	1075
28388 kPa	1074.9
28415 kPa	1074.9
28447 kPa	1075
28474 kPa	1075.1
28500 kPa	1075
28527 kPa	1075
28559 kPa	1075.1
28586 kPa	1075
28618 kPa	1075.1
28646 kPa	1075.1
28674 kPa	1075.2
28706 kPa	1075.1
28733 kPa	1075
28760 kPa	1075.2
28787 kPa	1075.2
28820 kPa	1075.2
28847 kPa	1075.2
28881 kPa	1075.2
28908 kPa	1075.1
